Data: patent US7713969B2, “Compositions and methods for treatment of cancer” (ArQule, Inc., priority 2005, dated 2010)
Read-outs that look alike come from different tables or passages of the source.

Assays:
[1] = test system: MDA-MB-231 human breast cancer xenograft; test: MDA-MB-231 xenograft, intraperitoneal 80 mg/kg (Example 82); assay type: in vivo, mice; conditions: 80 mg/kg intraperitoneally, 5 days on/2 off, four cycles, DMA/PEG 400
Description: Athymic female nude mice (CRL:NU/NU-nuBR) were injected subcutaneously in the flank with MDA-MB-231 human breast cancer cells (8×10^6 cells/mouse). Prior to injection, MDA-MB-231 cells were cultured in DMEM (Invitrogen #11965-092) supplemented with 10% (v/v) heat inactivated fetal bovine serum (FBS), 1% Hepes buffer solution (Invitrogen #15630-080) and 1% Penicillin/Streptomycin (Invitrogen #15140-122) at 37° C. in 5% CO2. Tumors were allowed to grow to approximately 50 mm^3 in size. Animals were randomized into three groups of eight animals per group. At day four post injection, mice with established tumors were treated intraperitoneally with (±)-Cis-3-(5,6-dihydro-4H-pyrrolo[3,2,1-ij]quinolin-1yl)-4(1H-indol-3-yl)pyrrolidine-2,5-dione (80 mg/kg), (±)-Trans-3-(5,6-dihydro-4H-pyrrolo[3,2,1-ij]quinolin-1-yl)-4(1H-indol-3-yl)pyrrolidine-2,5-dione (80 mg/kg) administered in DMA/PEG 400 (1:4 v/v) as the vehicle at 50 mg/ml, or vehicle control intraperitoneally. […] Tumor size was evaluated periodically during the study. For each subject, tumor volume was calculated using the formula (L×W^2)/2 where L and W were the length and width of the tumor, respectively. The arithmetic mean tumor volume was calculated for each treatment group+/−standard error of the mean (SEM). […]

[2] = test system: MDA-MB-231 human breast cancer xenograft; test: MDA-MB-231 xenograft, intraperitoneal 160 mg/kg (Example 81); assay type: in vivo, mice; conditions: 160 mg/kg intraperitoneally, q3d×10, lipiodol vehicle
Description: Athymic female nude mice (CRL:NU/NU-nuBR) were injected subcutaneously in the flank with MDA-MB-231 human breast cancer cells (8×10^6 cells/mouse). Prior to injection, MDA-MB-231 cells were cultured in DMEM (Invitrogen #11965-092) supplemented with 10% (v/v) heat inactivated fetal bovine serum (FBS), 1% Hepes buffer solution (Invitrogen #15630-080) and 1% Penicillin/Streptomycin (Invitrogen #15140-122) at 37° C. in 5% CO2. Tumors were allowed to grow to approximately 50 mm^3 in size. Animals were randomized into three groups of five animals per group. At day ten post injection, mice with established tumors were treated intraperitoneally with (±)-cis-3-(5,6-dihydro-4H-pyrrolo[3,2,1-ij]quinolin-1yl)-4(1H-indol-3-yl) pyrrolidine-2,5-dione (160 mg/kg), (±)-trans-3-(5,6-dihydro-4H-pyrrolo[3,2,1-ij]quinolin-1-yl)-4(1H-indol-3-yl)pyrrolidine-2,5-dione (160 mg/kg) administered in iodinated poppy seed oil (lipiodol) as the vehicle at 10 mg/ml, or vehicle control. Drug or vehicle was administered every three days for a total of ten doses (q3d×10). Tumor size was evaluated periodically during the study. For each subject, tumor volume was calculated using the formula (L×W^2)/2 where L and W were the length and width of the tumor, respectively. The arithmetic mean tumor volume was calculated for each treatment group+/−standard error of the mean (SEM). […]

c-Met = c-Met (Homo sapiens, UniProt P08581); test: c-Met inhibition, phospho-c-Met blot with densitometry (Example 83); assay type: cell-based; parameters: whole cell extracts were prepared; endogenous in cells; host or cells: MCF-7, MDA-MB-231, DLD1, HT29, PACA2, PANC-1, NCI-H441; conditions: 24 hours treatment, read-out: (−)-trans IC50 c-Met Inhibition
Chain of c-Met (P08581 25-1390): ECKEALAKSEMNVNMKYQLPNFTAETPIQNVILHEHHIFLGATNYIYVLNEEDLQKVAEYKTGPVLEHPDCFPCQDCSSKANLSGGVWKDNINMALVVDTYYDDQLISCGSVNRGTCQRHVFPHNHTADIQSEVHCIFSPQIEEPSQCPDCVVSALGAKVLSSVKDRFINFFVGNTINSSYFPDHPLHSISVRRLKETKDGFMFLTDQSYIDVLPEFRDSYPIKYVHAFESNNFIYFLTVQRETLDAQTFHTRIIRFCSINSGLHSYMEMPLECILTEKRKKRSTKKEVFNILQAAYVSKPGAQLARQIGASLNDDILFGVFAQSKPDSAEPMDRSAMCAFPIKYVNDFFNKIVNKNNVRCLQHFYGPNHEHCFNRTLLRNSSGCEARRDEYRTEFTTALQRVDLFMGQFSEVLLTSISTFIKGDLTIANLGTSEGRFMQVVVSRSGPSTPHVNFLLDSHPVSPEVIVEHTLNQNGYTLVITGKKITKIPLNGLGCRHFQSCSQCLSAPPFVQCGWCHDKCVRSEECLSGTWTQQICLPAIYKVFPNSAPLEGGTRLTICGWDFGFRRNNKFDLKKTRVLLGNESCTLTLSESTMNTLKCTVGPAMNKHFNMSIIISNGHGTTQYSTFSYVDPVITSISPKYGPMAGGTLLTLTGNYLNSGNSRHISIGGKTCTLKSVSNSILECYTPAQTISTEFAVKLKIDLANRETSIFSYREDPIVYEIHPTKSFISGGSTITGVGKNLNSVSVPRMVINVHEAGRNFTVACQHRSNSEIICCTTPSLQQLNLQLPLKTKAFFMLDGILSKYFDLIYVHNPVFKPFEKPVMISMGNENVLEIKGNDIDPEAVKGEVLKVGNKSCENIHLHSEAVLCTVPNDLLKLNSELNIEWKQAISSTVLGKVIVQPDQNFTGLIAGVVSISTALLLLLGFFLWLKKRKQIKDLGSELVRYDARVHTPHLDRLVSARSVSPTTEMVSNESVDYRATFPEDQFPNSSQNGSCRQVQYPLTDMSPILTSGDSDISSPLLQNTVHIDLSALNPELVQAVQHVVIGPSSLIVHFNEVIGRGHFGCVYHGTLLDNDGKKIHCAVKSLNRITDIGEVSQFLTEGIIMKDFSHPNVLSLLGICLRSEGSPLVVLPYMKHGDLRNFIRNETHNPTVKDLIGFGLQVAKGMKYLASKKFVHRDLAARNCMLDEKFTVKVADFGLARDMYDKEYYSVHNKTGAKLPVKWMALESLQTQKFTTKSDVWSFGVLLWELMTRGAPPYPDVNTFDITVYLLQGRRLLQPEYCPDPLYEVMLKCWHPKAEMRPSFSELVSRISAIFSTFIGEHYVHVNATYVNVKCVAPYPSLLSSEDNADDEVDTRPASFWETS
Description: To determine c-met inhibition, exponentially growing MCF-7 and MDA-MB-231 human breast cancer cells, DLD1 and HT29 human colon cancer cells, PACA2 and PANC-1 human pancreatic cancer cells and NCI-H441 human non-small cell lung cancer cells (H441) were serum starved in 0.5% FBS and treated with increasing amounts of (−)-trans-3-(5,6-dihydro-4H-pyrrolo [3,2,1-ij]quinolin-1-yl)-4(1H-indol-3-yl)pyrrolidine-2,5-dione for 24 hours as indicated. Cells were then left unstimulated or stimulated with 100 ng/mL HGF for 10 minutes and whole cell extracts were prepared. Whole cell lysates (50 μg) were resolved by SDS-PAGE, transferred onto a PVDF membrane, and an enhanced chemiluminescence assay system (ECL) was used to determine the phosphorylation status of c-Met. A polyclonal antibody against phospho (Y1349) c-Met (phospho-c-Met) was obtained from Biosource International and a monoclonal antibody against β-actin was purchased from Invitrogen. Percent inhibition was determined by densitometry using the Scion Image For colony formation assays (CFA), exponentially growing cells were seeded at 2,000 cells per well in 6-well plates and allowed to attach for 24 hours. Increasing concentrations of (−)-trans-3-(5,6-dihydro-4H-pyrrolo[3,2,1-ij]quinolin-1-yl)-4(1H-indol-3-yl)pyrrolidine-2,5-dione (from 0.01 to 30 μM) were then added to the media for another 24 hours. After 24 hours exposure, the drug was removed and fresh media was added for the next 14-21 days, allowing for colony formation. Cells were fixed and stained with GEMSA (Gibco BRL). Colonies of greater than 50 cells were scored as survivors and percentage of cell survival was plotted to determine the IC50. […] The IC50 of (−)-trans-3-(5,6-dihydro-4H-pyrrolo[3,2,1-ij]quinolin-1-yl)-4(1H-indol-3-yl) pyrrolidine-2,5-dione for c-Met expressing solid tumor types is in the 0.1-0.7 μM range following exposure to (−)-trans-3-(5,6-dihydro-4H-pyrrolo[3,2,1-ij]quinolin-1-yl)-4(1H-indol-3-yl)pyrrolidine-2,5-dione for 24 hours, as determined by colony formation assay (CFA).

| IC50 (c-Met; DLD-1 cells) [nM] | IC50 (c-Met; H441 cells) [nM] | IC50 (c-Met; HT-29 cells) [nM] | IC50 (c-Met; MCF-7 cells) [nM] | IC50 (c-Met; MDA-MB-231 cells) [nM] | IC50 (c-Met; PACA2 cells) [nM] | IC50 (c-Met; PANC-1 cells) [nM] | Compound | reduction of mean tumor volume compared to vehicle treated control [1] [%] | reduction of normalized mean tumor volume compared to vehicle treated control [2] [%] |
| --- | --- | --- | --- | --- | --- | --- | --- | --- | --- |
|  |  |  |  |  |  |  | O=C1NC(=O)[C@@H](c2cn3c4c(cccc24)CCC3)[C@@H]1c1c[nH]c2ccccc12 (racemic) [(±)-Trans-3-(5,6-dihydro-4H-pyrrolo[3,2,1-ij]quinolin-1-yl)-4(1H-indol-3-yl)pyrrolidine-2,5-dione] | 69.4 | 43.5 |
| 3000 | 100 | 300 | 100 | 100 | 100 | 500 | O=C1NC(=O)C(c2cn3c4c(cccc24)CCC3)C1c1c[nH]c2ccccc12 (single isomer, unassigned; (-)) |  |  |
